Measured values published in patent US20190263799A1, “1H-IMIDAZO[4,5-B]PYRIDINYL AND 2-OXO-2,3-DIHYDRO-1H-IMIDAZO[4,5-B]PYRIDINYL HETEROCYCLIC BET BROMODOMAIN INHIBITORS” (ZENITH EPIGENETICS LTD., priority 2015, published 2019).
Read-outs that look alike come from different tables or passages of the source.

Columns and labels:
[1] = biological target: T1, BRD4(1) (Homo sapiens, UniProt O60885); assay: Inhibition of tetra-acetylated histone H4 binding to individual BET bromodomains (AlphaScreen); conditions: His-tagged BRD4(1) 20 nM, biotinylated tetra-acetylated histone H4 peptide, 30 min incubation; read-out: FRET activity BRD4(1)
T1 construct: N-terminally His-tagged bromodomains (BRD4(1) at 20 nM and BRD4(2) at 100 nM); made in house; host or cells: E. coli BL21(DE3)
Description: Proteins were cloned and overexpressed with a N-terminal 6×His tag, then purified by nickel affinity followed by size exclusion chromatography. Briefly, E. coli BL21(DE3) cells were transformed with a recombinant expression vector encoding N-terminally Nickel affinity tagged bromodomains from Brd2, Brd3, Brd4. Cell cultures were incubated at 37° C. with shaking to the appropriate density and induced overnight with IPTG. The supernatant of lysed cells was loaded onto Ni-IDA column for purification. Eluted protein was pooled, concentrated and further purified by size exclusion chromatography. Fractions representing monomeric protein were pooled, concentrated, aliquoted, and frozen at −80° C. for use in subsequent experiments.
Binding of tetra-acetylated histone H4 peptide (Millipore) and BET bromodomains was confirmed by Amplified Luminescent Proximity Homogenous Assay (AlphaScreen). N-terminally His-tagged bromodomains (BRD4(1) at 20 nM and BRD4(2) at 100 nM) and biotinylated tetra-acetylated histone H4 (10-25 nM) were incubated in the presence of nickel chelate acceptor beads and streptavidin donor beads (PerkinAlmer, 6760000K) added to a final concentration of 2 μg/mL under green light in a white 96 well microtiter plate (Greiner). For inhibition assays, serially diluted compounds were added to the reaction mixtures in a 0.1% final concentrations of DMSO. Final buffer concentrations were 50 mM HEPES, 100 mM NaCl and 0.1% BSA buffer, pH 7.4 and optimized to 30 min incubation time. Assay plates were read at 570 nm on a Synergy H4 Plate Reader (Biotek). IC50 values were determined from a dose response curve.

[2] = system: cMYC; assay: Inhibition of cMYC expression in cancer cell lines (MV4-11, real-time PCR); type: cell-based; conditions: Homo sapiens, read-out: Myc activity
Description: MV4-11 cells (CRL-9591) were plated at a density of 2.5×10^4 cells per well in 96 well U-bottom plates and treated with increasing concentrations of test compound or DMSO (0.1%) in IMDM media containing 10% FBS and penicillin/streptomycin, and incubated for 3 h at 37° C. Triplicate wells were used for each concentration. Cells were pelleted by centrifugation and harvested using the mRNA Catcher PLUS kit according to manufacturer's instructions. The eluted mRNA isolated was then used in a one-step quantitative real-time PCR reaction, using components of the RNA UltraSense™ One-Step Kit (Life Technologies) together with Applied Biosystems TaqMan® primer-probes for cMYC and Cyclophilin. Real-time PCR plates were run on a ViiA™7 real time PCR machine (Applied Biosystems), data were analyzed, normalizing the Ct values for cMYC to an internal control, prior to determining the fold expression of each sample, relative to the control.

[3] = system: MV4-11 cells; assay: Inhibition of cell proliferation in cancer cell lines (MV4-11, CellTiter Aqueous One); type: cell-based; conditions: Homo sapiens, read-out: Proliferation activity
Description: MV4-11 cells (CRL-9591) were plated at a density of 5×10^4 cells per well in 96 well flat bottom plates and treated with increasing concentrations of test compound or DMSO (0.1%) in IMDM media containing 10% FBS and penicillin/streptomycin. Triplicate wells were used for each concentration and a well containing only media was used as a control. Plates were incubated at 37° C., 5% CO2 for 72 h before adding 20 μL of the CellTiter Aqueous One Solution (Promega) to each well and incubating at 37° C., 5% CO2 for an additional 3-4 h. The absorbance was read at 490 nm in a spectrophotometer and the percentage of cell titer relative to DMSO-treated cells was calculated after correcting for background by subtracting the blank well's signal. IC50 values were calculated using the GraphPad Prism software.

[4] = MV4-11 cells, 3 h incubation, cMYC mRNA

SMILES | IC50 [1] [nM] | IC50 [2, 4] [nM] | IC50 ([3]; MV4-11 cells, 72 h incubation) [nM] | IC50 ([2]; MV4-11, 3 h) [nM] | IC50 ([3]; MV4-11, 72 h) [nM]
CC(=O)Nc1cnc2nc(C)n(Cc3ccccc3)c2c1 [Example 1, N-(1-Benzyl-2-methyl-1H-imidazo[4,5-b]pyridin-6-yl)acetamide] | 3000 to 30000 | – | – | – | –
CC(=O)N(C)c1cnc2nc(C)n(Cc3ccccc3)c2c1 [Example 3, N-(1-Benzyl-2-methyl-1H-imidazo[4,5-b]pyridin-6-yl)—N-methylacetamide] | ≤ 300 | – | – | 3000 to 30000 | 3000 to 30000
C=CC(=O)N(C)c1cnc2nc(C)n(Cc3ccccc3)c2c1 [Example 4, N-(1-Benzyl-2-methyl-1H-imidazo[4,5-b]pyridin-6-yl)-N-methylacrylamide] | ≤ 300 | 300 to 3000 | 3000 to 30000 | – | –
Cc1nc2ncc(N(C)C(=O)CCCl)cc2n1Cc1ccccc1 [Example 5, N-(1-Benzyl-2-methyl-1H-imidazo[4,5-b]pyridin-6-yl)-3-chloro-N-methylpropanamide] | 300 to 3000 | 3000 to 30000 | 3000 to 30000 | – | –
CCN(C(C)=O)c1cnc2nc(C)n(Cc3ccccc3)c2c1 [Example 6, N-(1-Benzyl-2-methyl-1H-imidazo[4,5-b]pyridin-6-yl)-N-ethylacetamide] | 300 to 3000 | – | – | 3000 to 30000 | –
C=CC(=O)N(CC)c1cnc2nc(C)n(Cc3ccccc3)c2c1 [Example 7, N-(1-Benzyl-2-methyl-1H-imidazo[4,5-b]pyridin-6-yl)-N-ethylacrylamide] | 300 to 3000 | – | – | – | –
CN(C(=O)CCCl)c1cnc2c(c1)n(Cc1ccccc1)c(=O)n2C [Example 10, N-(1-Benzyl-3-methyl-2-oxo-2,3-dihydro-1H-imidazo[4,5-b]pyridin-6-yl)-3-chloro-N-methylpropanamide] | 3000 to 30000 | – | 3000 to 30000 | – | –
C=CC(=O)N(C)c1cnc2nc(N3CCC3)n(Cc3ccccc3)c2c1 [Example 17, N-(2-(Azetidin-1-yl)-1-benzyl-1H-imidazo[4,5-b]pyridin-6-yl)-N-methylacrylamide] | ≤ 300 | – | – | 300 to 3000 | 300 to 3000

The next lines start with results.

IC50 [1] [nM] | IC50 [2, 4] [nM] | IC50 ([3]; MV4-11 cells, 72 h incubation) [nM] | SMILES | IC50 ([2]; MV4-11, 3 h) [nM] | IC50 ([3]; MV4-11, 72 h) [nM]
≤ 300 | 3000 to 30000 | 3000 to 30000 | CC(=O)N(C)c1cnc2c(c1)n(Cc1ccccc1)c(=O)n2C [Example 11, N-(1-Benzyl-3-methyl-2-oxo-2,3-dihydro-1H-imidazo[4,5-b]pyridin-6-yl)-N-methylacetamide] | – | –
≤ 300 | 3000 to 30000 | 3000 to 30000 | C=CC(=O)N(C)c1cnc2c(c1)n(Cc1ccccc1)c(=O)n2C [Example 12, N-(1-Benzyl-3-methyl-2-oxo-2,3-dihydro-1H-imidazo[4,5-b]pyridin-6-yl)-N-methylacrylamide] | – | –
300 to 3000 | – | – | CCN(C(C)=O)c1cnc2c(c1)n(Cc1ccccc1)c(=O)n2C [Example 13, N-(1-Benzyl-3-methyl-2-oxo-2,3-dihydro-1H-imidazo[4,5-b]pyridin-6-yl)-N-ethylacetamide] | – | –
300 to 3000 | – | – | C=CC(=O)N(CC)c1cnc2c(c1)n(Cc1ccccc1)c(=O)n2C [Example 14, N-(1-Benzyl-3-methyl-2-oxo-2,3-dihydro-1H-imidazo[4,5-b]pyridin-6-yl)-N-ethylacrylamide] | – | –
≤ 300 | 3000 to 30000 | 3000 to 30000 | C=CC(=O)N(C)c1cnc2nc(N3CCOCC3)n(Cc3ccccc3)c2c1 [Example 16, N-(1-Benzyl-2-morpholino-1H-imidazo[4,5-b]pyridin-6-yl)-N-methylacrylamide] | – | –
≤ 300 | 300 to 3000 | 3000 to 30000 | C=CC(=O)N(C)c1cnc2nc(N(C)C)n(Cc3ccccc3)c2c1 [Example 19, N-(1-Benzyl-2-(dimethylamino)-1H-imidazo[4,5-b]pyridin-6-yl)-N-methylacrylamide] | – | –
≤ 300 | 300 to 3000 | 300 to 3000 | C=CC(=O)N(C)c1cnc2nc(NC3CCOCC3)n(Cc3ccccc3)c2c1 [Example 20, N-(1-Benzyl-2-((tetrahydro-2H-pyran-4-yl)amino)-1H-imidazo[4,5-b]pyridin-6-yl)-N-methylacrylamide] | – | –
